Experimental data: patent US20180256489A1, “NATURAL FORMULATIONS” (priority 2010, published 2018)

Key:
[1] = Foaming by shaking in a covered glass cylinder; type: physicochemical; details: Table 5; 1 wt % calculated saponins in distilled water
Protocol: (§1) Foaming properties of a solution of 1 wt % of the extract of the invention in water were measured by shaking 10 ml of the solution five times in a 100 ml covered glass cylinder. The volume of the generated foam was measured. Another method for measuring the foaming was performed by Moulinex LM240 blender at a maximum speed of 10 seconds for 80 ml solution. The generated foam was transferred to glass cylinder and measured. The same procedure was repeated with extracts obtained by various ethanol/water mixtures. Foaming—solution of 1 wt % of the extract in water was shaken five times in a glass cylinder as described above. The volume of the generated foam was measured. Another method for measuring the foaming was performed by Moulinex LM240 blender at a maximum speed of 10 seconds for 80 ml solution and measured in a glass cylinder, and the foaming results are detailed in Table 4 below.

[2] = Foaming by Moulinex LM240 blender; type: physicochemical; details: Table 5; 1 wt % calculated saponins in distilled water
Protocol: as §1

[3] = tested on: erythrocytes of sheep blood; test: Haemolysis test (model for eye irritation); type: cell-based; details: 50% haemolysis, 30 minutes in ice, 540 nm
Protocol: Haemolysis test (which serves as a model for eye irritation) was conducted in order to determine the safety of the products of the invention in comparison to the commercial surfactant SLES (sodium lauryl ether sulfate).
Preparation of the erythrocyte suspension: erythrocytes of sheep blood were separated by centrifugation at 1250g, for 15 minutes at room temperature, washed three times with phosphate-buffered saline solution (PBS, pH 7.4), and centrifuged twice under the same condition. The blood volume was completed with PBS. This suspension was maintained at 4° C. for up to three days.
The assay procedure: 20 μl of each sample were diluted up to 2 ml of the suspension, and were incubated with for 30 minutes in ice. The incubation was terminated by a rapid, high-speed (1800 g) centrifugation for 30 minutes. The extent of haemolysis was determined in spectrophotometrically at 540 nm against a blank (PBS). The extent of haemolysis, expressed as a percentage, was calculated as the absorbance of an erythrocyte suspension incubated with each product, relative to that of a completely haemolysed control (100%, at distilled water) at 540 nm. The Hm50 (50% haemolysis) was determined from concentration—response curves.

Substance	Foam volume by shaking [1]	Foam volume by blender [2]	HM50 [3] [gram/100 ml]
decyl glycoside [1 wt % Decyl glycoside]	57 (±5) ml	420 (±15) ml	–
sodium lauryl ether sulfate [SLES]	–	–	0.001
